# According to patent US11160871B2, “SSTR-targeted conjugates and particles and formulations thereof” (TARVEDA THERAPEUTICS, INC., priority 2015, dated 2021):
# Where “and” joins values, the source holds several entries; their conditions need not be identical. Identical values can stand only once.
# Legend:
# [1] = test system: NCI-H524 human small cell lung cancer cells; assay: cells; format: cell-based; details: NCI-H524 proliferation
# Description: Conjugates of the present invention were assessed in an in vitro assay evaluating inhibition of cell proliferation. NCI-H524 (ATCC) human small cell lung cancer cells were plated in 96 well, V-bottomed plates (Costar) at a concentration of 5,000 cells/well. 24 hours later, cells were treated with either conjugate for 2 hours and further incubated 70 hours, or for octreotide competition experiments, treated with 100 μM octreotide for 30 min, and then treated with conjugate for 2 hours, and further incubated for 70 hours. Conjugate starting dose was 20 μM and three fold serial dilutions were done for a total of ten points. After 2 hours of treatment, cells were spun down, the drug containing media was removed, and fresh complete medium was added and used to resuspend the cells, which were spun again. After removal of the wash media, the cells were resuspended in complete medium, and then transferred into white walled, flat bottomed 96 well plates. […] Proliferation was measured using CellTiter Glo reagent using the standard protocol (Promega) and a Glomax multi+ detection system (Promega). Percent proliferation inhibition was calculated using the following formula: % inhibition=(control−treatment)/control*100. Control is defined as vehicle alone. IC50 curves were generated using the nonlinear regression analysis (four parameter) with GraphPad Prism 6.
# [2] = test system: HCC-33 (small cell lung cancer) xenograft; assay: HCC-33 xenograft, multiple dose regimens (Example 17); format: in vivo
# Description: HCC-33 (small cell lung cancer) xenograft was chosen to study efficacy of Conjugate 57. In some groups, Conjugate 57 was given at 1.0 mg/kg, 0.5 mg/kg or 0.33 mg/kg every week for 30 days, a total of four doses for each animal. In some other groups, Conjugate 57 was also given at 0.5 mg/kg or 0.25 mg/kg twice a week for 30 days, a total of 8 total doses for each animal.
# NCI-H524 cells = assay: PH3 assay of cell-cycle arrest; format: cell-based, human
# From the text: Results of a PH3 assay measuring effect on cell-cycle arrest that looks at phospho histone H3 (PH3) increases were shown in FIG. 2B.
# SSTR2 = SSTR2 (Homo sapiens, UniProt P30874); assay: Radioligand-receptor binding assay, [125I] labeled somatostatin; set-up: host or cells: CHO-K1
# Description: Two conjugates were assessed in an in vitro assay evaluating binding to the somatostatin receptor 2 (SSTR2). A radioligand-receptor binding assay was conducted at Eurofins Panlabs (Taiwan) to determine the affinity of conjugates described herein to the SSTR2. The assay measures binding of radiolabeled ligand, [^125I] labeled somatostatin, to human SSTR2 using membrane preparations from SSTR2 expressing CHO-K1 cells. Membranes were incubated with radiolabeled somatostatin (0.03 nM) in the presence of conjugate/compound starting at a dose of 10 uM using 6× serial dilutions to obtain a 10-pt curve. After a four hour incubation, membranes were filtered and washed 3× and counted to determine the remaining[^125 I] somatostatin bound to the receptor. IC50 values were determined by a non-linear, least squares regression analysis using MathIQ™ (ID Business Solutions Ltd., UK). The Ki values were calculated using the equation of Cheng and Prusoff (Cheng and Prusoff, Biochem. Pharmacol. 22:3099-3108, 1973) using the observed IC50 of the tested conjugate/compound, the concentration of radioligand employed in the assay, and the historical values for the KD of the ligand obtained at Eurofins.
# [3] = test system: NCI-H69 small cell lung cancer model; assay: NCI-H69 model, comparison with standard of care combination; format: in vivo, rats; details: Cycle 1 Day 1, Cycle 2 Day 8; Conjugate 57 one cycle at MTD (2 mg/kg), other doses equivalent
# Description: In yet another study, single cycle of Conjugate 57 treatment was compared with two cycles of standard of care combination in NCI-H69 small cell lung cancer model. NCI-H69 bearing rats were treated with two cycles of cctreotide+DM1, one or two cycles of cisplatin+etoposide, one cycle of Conjugate 57. Cycle 1 was given on Day 1, Cycle 2 on Day 8. Rats were dosed with MTD (2 mg/kg) of Conjugate 57. Octreotide, DM1, cisplatin, and etoposide doses were equivalent to Conjugate 57.
# H69 tumor = assay: Histological staining of PH3 and CC3 in periphery, middle and core of H69 tumor; format: in vivo
# From the text: Histological staining of PH3 and CC3 in periphery, middle and core of H69 tumor after Conjugate 57 treatment was shown in FIG. 22A and FIG. 22B. The periphery sample was taken from roughly the outside ⅓ of the tumor. The core sample was taken from roughly the center ⅓ of the tumor. The middle sample was taken from roughly ⅓ in between these locations. Using a 40× high-powered objective, positively stained cells were counted, one field per animal, 3 animals per treatment group. Each field was roughly 500 μm in size. In general, the PH3 staining was strongest on the periphery and decreased as you moved towards the center of the tumor.
# [4] = 0.25 mg/kg 2x/wk, 8 total doses
# [5] = 0.33 mg/kg every week, four doses
# [6] = 0.5 mg/kg every week, four doses
# [7] = 1.0 mg/kg every week, four doses
# SSTR2, sequence (P30874 whole entry): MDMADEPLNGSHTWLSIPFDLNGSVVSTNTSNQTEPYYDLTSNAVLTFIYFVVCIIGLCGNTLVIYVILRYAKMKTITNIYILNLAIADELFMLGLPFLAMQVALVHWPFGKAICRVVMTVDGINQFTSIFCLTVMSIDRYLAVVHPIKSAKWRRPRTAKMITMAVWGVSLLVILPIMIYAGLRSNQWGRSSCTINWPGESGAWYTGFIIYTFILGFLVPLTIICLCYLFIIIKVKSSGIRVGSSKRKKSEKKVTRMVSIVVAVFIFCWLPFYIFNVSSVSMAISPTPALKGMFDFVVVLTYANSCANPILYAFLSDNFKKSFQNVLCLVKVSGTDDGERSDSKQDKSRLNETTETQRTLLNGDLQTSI
smiles,measurement,setting,value
COc1cc2cc(c1Cl)N(C)C(=O)C[C@H](OC(=O)[C@H](C)N(C)C(=O)CCSSC[C@H](NC(=O)[C@@H]1CSSC[C@H](NC(=O)[C@H](N)Cc3ccccc3)C(=O)N[C@@H](Cc3ccc(O)cc3)C(=O)N[C@H](Cc3c[nH]c4ccccc34)C(=O)N[C@@H](CCCCN)C(=O)N[C@@H]([C@@H](C)O)C(=O)N1)C(N)=O)[C@]1(C)O[C@H]1[C@H](C)[C@@H]1C[C@@](O)(NC(=O)O1)[C@H](OC)/C=C/C=C(\C)C2 [Conjugate 57],difference in IC50 with or without octreotide competition,[1],12.2 fold
same,TGI % Day 4,[2]; [4],−12.5%
same,TGI % Day 8,[2]; [4],50.4%
same,TGI % Day 11,[2]; [4],67.3%
same,TGI % Day 15,[2]; [4],85.8%
same,TGI % Day 18,[2]; [4],92.3%
same,TGI % Day 22,[2]; [4],95.8%
same,TGI % Day 25,[2]; [4],97.2%
same,TGI % Day 29,[2]; [4],97.8%
same,TGI % Day 4,[2]; [5],2.1%
same,TGI % Day 8,[2]; [5],34.2%
same,TGI % Day 11,[2]; [5],48%
same,TGI % Day 15,[2]; [5],62.4%
same,TGI % Day 18,[2]; [5],73.8%
same,TGI % Day 22,[2]; [5],79%
same,TGI % Day 25,[2]; [5],83.4%
same,TGI % Day 29,[2]; [5],78.5%
same,TGI % Day 4,"[2]; 0.5 mg/kg 2x/wk, 8 total doses",0.5%
same,TGI % Day 8,"[2]; 0.5 mg/kg 2x/wk, 8 total doses",61.6%
same,TGI % Day 11,"[2]; 0.5 mg/kg 2x/wk, 8 total doses",78.3%
same,TGI % Day 15,"[2]; 0.5 mg/kg 2x/wk, 8 total doses",91.8%
same,TGI % Day 18,"[2]; 0.5 mg/kg 2x/wk, 8 total doses",96.2%
same,TGI % Day 22,"[2]; 0.5 mg/kg 2x/wk, 8 total doses",97.6%
same,TGI % Day 25,"[2]; 0.5 mg/kg 2x/wk, 8 total doses",99.1%
same,TGI % Day 29,"[2]; 0.5 mg/kg 2x/wk, 8 total doses",99.2%
same,TGI % Day 4,[2]; [6],1.6%
same,TGI % Day 8,[2]; [6],60.3%
same,TGI % Day 11,[2]; [6],68.8%
same,TGI % Day 15,[2]; [6],82.7%
same,TGI % Day 18,[2]; [6],87.1%
same,TGI % Day 22,[2]; [6],91.1%
same,TGI % Day 25,[2]; [6],93.6%
same,TGI % Day 29,[2]; [6],89.5%
same,TGI % Day 4,[2]; [7],25.8%
same,TGI % Day 8,[2]; [7],69.9%
same,TGI % Day 11,[2]; [7],84.4%
same,TGI % Day 15,[2]; [7],93.6%
same,TGI % Day 18,[2]; [7],97.4%
same,TGI % Day 22,[2]; [7],99.2%
same,TGI % Day 25,[2]; [7],99.8%
same,TGI % Day 29,[2]; [7],99.7%
same,tolerability of multiple doses,[2]; all regimens,well tolerated
same,shift in PH3 assay on competition with octreotide,NCI-H524 cells,2.6 fold
same,SSTR affinity of Conjugate 57 relative to Conjugate 120,SSTR2,"100,00 fold"
same,Ki,"SSTR2; Conjugate 57 Ki (nM), SSTR2",0.018 nM and 0.0177 nM
same,Ki,"SSTR2; Ki (nm), SSTR affinity, Example 8",0.017 nM
same,Ki,"SSTR2; SSTR2 Ki (nM), membranes from SSTR2 expressing CHO-K1 cells",0.018 nM
same,tumor response (tumor volume),[3],complete regression
same,"Number of cells with positive CC3 stain, Core",H69 tumor; 24 h,50.3
same,"Number of cells with positive CC3 stain, Middle",H69 tumor; 24 h,27.0
same,"Number of cells with positive CC3 stain, Periphery",H69 tumor; 24 h,9.7
same,"Number of cells with positive PH3 stain, Core",H69 tumor; 24 h,74.7
same,"Number of cells with positive PH3 stain, Middle",H69 tumor; 24 h,122.3
same,"Number of cells with positive PH3 stain, Periphery",H69 tumor; 24 h,158.3
same,"Number of cells with positive CC3 stain, Core",H69 tumor; 72 h,106.7
same,"Number of cells with positive CC3 stain, Middle",H69 tumor; 72 h,72.0
same,"Number of cells with positive CC3 stain, Periphery",H69 tumor; 72 h,41.0
same,"Number of cells with positive PH3 stain, Core",H69 tumor; 72 h,113.0
same,"Number of cells with positive PH3 stain, Middle",H69 tumor; 72 h,144.3
same,"Number of cells with positive PH3 stain, Periphery",H69 tumor; 72 h,215.7
